The values below come from patent publication US8435978B2, “Substituted sulfonamide compounds” (Gruenenthal GmbH, priority 2006, dated 2013).

Structures can show the parent of a compound that is named as a salt.

For one test, the target named is T1, human B1R receptor (Homo sapiens, UniProt P46663).
T1 construct: host or cells: CHO K1 cells (Chinese hamster ovary), stably transfected
T1 sequence (P46663 1-353): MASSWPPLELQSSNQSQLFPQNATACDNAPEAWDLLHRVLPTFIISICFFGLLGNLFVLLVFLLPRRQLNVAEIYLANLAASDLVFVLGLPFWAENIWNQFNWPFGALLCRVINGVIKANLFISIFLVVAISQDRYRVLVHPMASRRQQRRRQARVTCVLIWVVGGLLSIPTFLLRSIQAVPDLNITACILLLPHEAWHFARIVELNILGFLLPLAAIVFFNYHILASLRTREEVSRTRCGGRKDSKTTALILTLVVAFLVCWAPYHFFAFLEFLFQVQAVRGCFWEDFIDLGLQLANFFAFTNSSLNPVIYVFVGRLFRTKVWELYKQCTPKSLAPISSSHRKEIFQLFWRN
In words: Functional study on the bradykinin receptor 1 (B1R), FLIPR Ca2+ assay, hB1R cells. The format is cell-based. The following applies: agonist Lys-Des-Arg9-bradykinin 0.5 nM, % inhibition compared with the maximum achievable inhibition; for inhibition at 10 µM: CHO-K1, test substance 10 μM, read-out: B1R Antagonism, human [10 μM] % Inhibition. Put shortly:
(§1)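 FLIPR Ca2+ assay in recombinant CHO K1 cells (human or rat B1R), Fluo-4 dye; 10 μM compound, 10 min, then EC-level agonist per species (0.5 nM Lys-Des-Arg9-BK human / 100 nM Des-Arg9-BK rat). Output: % inhibition vs maximum.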

The next test concerns the target T2, B1R receptor of the rat (Rattus norvegicus, UniProt P97583).
T2 construct: host or cells: CHO K1 cells (Chinese hamster ovary), stably transfected
T2 sequence (P97583 1-337): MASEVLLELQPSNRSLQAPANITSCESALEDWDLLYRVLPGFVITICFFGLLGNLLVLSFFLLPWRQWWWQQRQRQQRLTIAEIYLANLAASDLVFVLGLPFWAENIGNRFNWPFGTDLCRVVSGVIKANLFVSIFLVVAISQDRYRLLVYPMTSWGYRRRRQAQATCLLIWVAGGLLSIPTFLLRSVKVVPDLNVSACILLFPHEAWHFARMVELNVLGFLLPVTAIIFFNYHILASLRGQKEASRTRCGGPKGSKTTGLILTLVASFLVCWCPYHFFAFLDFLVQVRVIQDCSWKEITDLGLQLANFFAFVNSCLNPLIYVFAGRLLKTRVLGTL
As to the kind of experiment: Functional study on the bradykinin receptor 1 (B1R), FLIPR Ca2+ assay, rB1R cells. Particulars: agonist Des-Arg9-bradykinin 100 nM, % inhibition compared with the maximum achievable inhibition; for inhibition at 10 µM: CHO-K1, test substance 10 μM, read-out: B1R Antagonism, rat [10 μM] % Inhibition. The format is cell-based. Summed up: as §1

For the molecule `COc1cc(C)c(S(=O)(=O)N2CCCCC2COCC(=O)NCCCN2CCOCC2)c(C)c1` (stereo not shown) [Example 344, 2-((1-(4-methoxy-2,6-dimethylphenylsulfonyl)piperidin-2-yl)methoxy)-N-(3-morpholinopropyl)acetamide], the inhibition at 10 µM is 48.8% on human B1R receptor and 88.4% at B1R receptor of the rat.
In the same order, the values of `COc1cc(C)c(S(=O)(=O)N2CCCCC2COCC(=O)Nc2ccncn2)c(C)c1` (stereo not shown) [Example 372, 2-((1-(4-methoxy-2,6-dimethylphenylsulfonyl)piperidin-2-yl)methoxy)-N-(pyrimidin-4-yl)acetamide] are -2.76% and 83.8%.
`O=C(COCC1CCCCN1S(=O)(=O)c1cccc(Br)c1)N1CCN(c2ccncc2)CC1` (stereo not shown) [Example 122, 2-((1-(3-bromophenylsulfonyl)piperidin-2-yl)methoxy)-1-(4-(pyridin-4-yl)piperazin-1-yl)ethanone]: the inhibition at 10 µM stood at 12.1% on human B1R receptor and 13% on B1R receptor of the rat.
With `CN(CCc1ccncc1)C(=O)COCC1CCCCN1S(=O)(=O)c1c(Cl)cc(Cl)cc1Cl` (stereo not shown) [Example 391, N-methyl-N-(2-(pyridin-4-yl)ethyl)-2-((1-(2,4,6-trichlorophenylsulfonyl)piperidin-2-yl)methoxy)acetamide], the inhibition at 10 µM at human B1R receptor worked out at 97.8%; at B1R receptor of the rat, 102%.
As to `CN1CCC(N2CCN(C(=O)COCC3CCCCN3S(=O)(=O)c3ccc4c(c3)CCCC4)CC2)CC1` (stereo not shown) [Example 179, 1-(4-(1-methylpiperidin-4-yl)piperazin-1-yl)-2-((1-(5,6,7,8-tetrahydronaphthalen-2-ylsulfonyl)piperidin-2-yl)methoxy)ethanone dihydrochloride], the inhibition at 10 µM turned out to be 104% at human B1R receptor and 100% at B1R receptor of the rat.
Turning to `O=C(COCC1CCCCN1S(=O)(=O)c1cccc2ccccc12)NCC1CCCN(Cc2ccccc2)C1` (stereo not shown) [Example 34, N-(1-benzyl-piperidin-3-ylmethyl)-2-[1-(naphthyl-1-sulfonyl)-piperidin-2-ylmethoxy]-acetamide], the “B1R Antagonism, human [10 μM] % Inhibition” value on human B1R receptor (test substance 10 μM, hB1R CHO K1 cells) stood at 79.9%. Further, the “B1R Antagonism, rat [10 μM] % Inhibition” value at B1R receptor of the rat (test substance 10 μM, rB1R CHO K1 cells) worked out at 39.48%.
On to `O=C(COCC1CCCCN1S(=O)(=O)c1ccc(Cl)c(Cl)c1)N1CCC(Cc2ccccc2)CC1` (stereo not shown) [Example 57, 1-(4-benzyl-piperidin-1-yl)-2-[1-(3,4-dichloro-phenylsulfonyl)-piperidin-2-ylmethoxy]-ethanone], for which the inhibition at 10 µM at human B1R receptor came to 62.4%; on B1R receptor of the rat, 0%.
Taken in the same sequence, the figures for `CN1CCN(C2CCN(C(=O)COCC3CCCCN3S(=O)(=O)c3c(Cl)cccc3Cl)CC2)CC1` (stereo not shown) [Example 278, 2-((1-(2,6-dichlorophenylsulfonyl)piperidin-2-yl)methoxy)-1-(4-(4-methylpiperazin-1-yl)piperidin-1-yl)ethanone] were 104% and 96.9%.
For the molecule `COc1cc(C)c(S(=O)(=O)N2Cc3ccccc3CC2COCC(=O)N2CCN(c3ccccc3)CC2)c(C)c1C` (stereo not shown) [Example 479, 2-((2-(4-Methoxy-2,3,6-trimethylphenylsulfonyl)-1,2,3,4-tetrahydroisoquinolin-3-yl)methoxy)-1-(4-phenylpiperazin-1-yl)ethanone], the inhibition at 10 µM was 32.3% at human B1R receptor and 99.1% at B1R receptor of the rat.
In the same order, the values of `COc1cc(C)c(S(=O)(=O)N2CCCC2COCC(=O)Nc2ccc(CCc3nc4ccccc4n3C)cc2)c(C)c1` (stereo not shown) [Example 470, 2-((1-(4-methoxy-2,6-dimethylphenylsulfonyl)pyrrolidin-2-yl)methoxy)-N-(4-(2-(1-methyl-1H-benzo[d]imidazol-2-yl)ethyl)phenyl)acetamide] are 92.7% and 98.1%.
Taken in the same sequence, the figures for `CN1CCN(C(=O)COCC2CCCCN2S(=O)(=O)c2c(Cl)cc(Cl)cc2Cl)CC1` (stereo not shown) [Example 393, 1-(4-methylpiperazin-1-yl)-2-((1-(2,4,6-trichlorophenylsulfonyl)piperidin-2-yl)methoxy)ethanone] were 104% and 101%.
